Test results published in US10328088B2, “Use of aminosalicylates in diarrhoea-predominent irritable bowel syndrome” (Salix Pharmaceuticals, Inc., priority 2004, dated 2019).

Tests used:
Assay type in all cases: in vivo, human
[1] = test system: diarrhoea-predominant IBS; assay: Example 1: case of a person with severe diarrhoea-predominant IBS treated with balsalazide
Description: A person presented with a 7 year history of worsening diarrhoea (watery 6-12/day), urgency, cramping lower abdominal pain and at times faecal incontinence. There was no clear preceding illness nor antibiotic usage. They underwent numerous investigations, beginning with general practitioners ordering stool cultures, blood tests, ultrasound and CT scan examinations. With the passage of time they noticed that some foods caused worsening of symptoms, and was told by a naturopath that they suffered from a ‘food allergy’. […] They consulted a gastroenterologist and underwent endoscopic small bowel biopsy—where coeliac disease was excluded histologically—and colonoscopy with biopsy and further stool cultures. All tests being non-diagnostic, they were told they had severe, diarrhoea-predominant IBS. They continued on the restricted diet, and was referred for counselling and hypnotherapy. Over the next 6-12 months they progressively lost weight with only modest control of their symptoms by the diet. Within 2 weeks of commencing increasing doses of balsalazide from 1.5 gram to 3 grams per day, the stools progressively formed up, with frequency reducing to 1-2 formed stools per day. […] By 6 weeks of treatment they regained 7 kg in weight.

[2] = test system: chronic IBS; assay: Example 2: case of a person with chronic IBS (diarrhoea with intervening constipation, diverticulosis) treated with balsalazide
Description: A person complained of greater than 20 years of diarrhoea with intervening constipation, abdominal bloating, pains, flatulence, and nausea with acid reflux. They had undergone several complete medical investigations including stool tests, blood tests, X-ray imaging and colonoscopic examinations, with negative findings apart from the presence of diverticulosis. Diagnosed as chronic IBS they tried increasing fibre intake, controlling stress, and changing their diet, all to no avail. On commencing balsalazide 1.5 g/day and pushing the dose upwards to 4.5 g/d their diarrhoea, pains, flatulence and nausea abated. At the higher dose the constipation also disappeared.

[3] = test system: diarrhoea predominant Irritable Bowel Syndrome; assay: Example 3: case of a person with diarrhoea predominant Irritable Bowel Syndrome treated with Salofalk granules, then balsalazide
[4] = test system: diarrhoea-predominant Irritable Bowel Syndrome; assay: Inventor's clinical experience in patients with diarrhoea-predominant IBS; settings: from clinical experience
Description: Balsalazide is better than mesalazine (5-ASA) in controlling and may inhibit even more powerfully the symptoms of diarrhoea-predominant IBS and associated conditions enumerated below. This is unexpected. It was not expected that balsalazide would be capable of treating diarrhoea-predominant IBS as it is a very different molecule to the conventional 4ASA and 5ASA compounds. […] It is noted that the side chain together with the 5-ASA potentiates inhibition of gas production, cramping, fluid secretion, and mucus production. It appears the large side chain apart from the salicylate component is effective in treating diarrhoea. In addition, in a subgroup of patients the constipation component of IBS may respond to the same treatment.

[5] = balsalazide 1.5 gram to 3 grams per day

O=C(O)CCNC(=O)c1ccc(/N=N/c2ccc(O)c(C(=O)O)c2)cc1 [balsalazide, 5[(1E)-[4-[[(2-carboxyethyl)amino]carbonyl]phenyl]azo]-2-hydroxybenzoic acid]
pain [1, 5]: completely abolished | urgency [1, 5]: disappaeared | weight regained ([1]; by 6 weeks of treatment): 7 kg | symptom status at follow up ([1]; on balsalazide at 26 weeks): virtually completely symptom-free | stool frequency ([1]; within 2 weeks of increasing doses from 1.5 gram to 3 grams per day, baseline watery 6-12/day): 1-2 formed stools per day | durability of improvements ([2]; at 26 weeks): remain sustained | constipation ([2]; at the higher dose (4.5 g/d)): disappeared | diarrhoea, pains, flatulence and nausea ([2]; balsalazide 1.5 g/day pushed upwards to 4.5 g/d): abated | improvement in symptoms ([3]; 750 mg twice daily slowly raised to 1.5 grams twice daily): dramatic | stool frequency ([3]; 3 grams twice daily): two | symptoms ([3]; 3 grams twice daily): largely disappeared | urgency or flatulence ([3]; 3 grams twice daily): without any urgency or flatulence | durability of improvements ([3]; at four months follow up): sustained | suppression of symptoms of diarrhoea-predominant Irritable Bowel Syndrome compared with conventional 4ASA and 5ASA compounds [4]: much more powerful
